Values joined by “and” are separate entries in the source; they are usually repeats but may differ in a detail not shown here. Equal entries are not always repeated. Toxic doses and inconclusive results are not listed. Where a SMILES comes first, the peptide text is derived from it. [ ]: non-standard residue; d: D form. The star is where a group is joined. ξ: configuration not given here. Cbz = O=C(OCc1ccccc1)*; OBn = c1ccc(CO*)cc1; Bn = c1ccc(C*)cc1; ξC = NC(CS)C(=O)O
Test system: B6C3F1 mice, B16 melanoma ip, median survival T/C
Experiment: NCI In Vivo Anticancer Drug Screen. Data for tumor model B16 Melanoma (intraperitoneal) in B6C3F1 mice
Settings: endpoint: median survival time, higher = longer survival
Protocol: The antitumor activity of compounds was measured in mice bearing transplantable tumors. Survival or tumor size were measured and the results are expressed as the measurement made in the treated group (T) divided by the measurement made in the vehicle treated control group (C). The tumor model used in this assay is B16 Melanoma (intraperitoneal) in B6C3F1 mice

[1] = dose: 25.0 mg/kg/injection, schedule: Q01DX009 (ip), vehicle: saline with Tween-80
[2] = dose: 50.0 mg/kg/injection, schedule: Q01DX009 (ip), vehicle: saline with Tween-80
[3] = dose: 100.0 mg/kg/injection, schedule: Q01DX009 (ip), vehicle: saline with Tween-80
[4] = dose: 12.5 mg/kg/injection, schedule: Q01DX009 (ip), vehicle: Klucel (hydroxypropylcellulose) (HPC)
[5] = dose: 25.0 mg/kg/injection, schedule: Q01DX009 (ip), vehicle: Klucel (hydroxypropylcellulose) (HPC)
[6] = dose: 50.0 mg/kg/injection, schedule: Q01DX009 (ip), vehicle: Klucel (hydroxypropylcellulose) (HPC)
[7] = dose: 100.0 mg/kg/injection, schedule: Q01DX009 (ip), vehicle: Klucel (hydroxypropylcellulose) (HPC)
[8] = dose: 200.0 mg/kg/injection, schedule: Q01DX009 (ip), vehicle: Klucel (hydroxypropylcellulose) (HPC)
[9] = dose: 400.0 mg/kg/injection, schedule: Q01DX009 (ip), vehicle: Klucel (hydroxypropylcellulose) (HPC)
[10] = dose: 6.25 mg/kg/injection, schedule: Q01DX009 (ip), vehicle: saline with Tween-80
[11] = dose: 12.5 mg/kg/injection, schedule: Q01DX009 (ip), vehicle: saline with Tween-80
[12] = dose: 8.0 mg/kg/injection, schedule: Q01DX009 (ip), vehicle: water
[13] = dose: 0.25 mg/kg/injection, schedule: Q01DX009 (ip), vehicle: water
[14] = dose: 0.5 mg/kg/injection, schedule: Q01DX009 (ip), vehicle: water
[15] = dose: 1.0 mg/kg/injection, schedule: Q01DX009 (ip), vehicle: water

COC(=O)NC1C(C)OC(OC2C/C=C(/C)C3C=CC4C(OC5CC(OC6CC(OC7CC(O)C(O)C(C)O7)C(OC7CC(O)C(OC)C(C)O7)C(C)O6)C(O)C(C)O5)C(C)CC(C)C4C3(C)/C(O)=C3\C(=O)OC4(CC(C)C(CO)=CC4/C=C\2C)C3=O)CC1(C)[N+](=O)[O-] (configuration not stated)
T/C (dose: 6.25 mg/kg/injection, schedule: Q01DX009 (ip), vehicle: water): 117 % of control and 100 % of control
T/C (dose: 12.5 mg/kg/injection, schedule: Q01DX009 (ip), vehicle: water): 108 % of control and 122 % of control
T/C (dose: 12.5 mg/kg/injection, schedule: Q01DX009 (sc), vehicle: water): 92 % of control
T/C (dose: 25.0 mg/kg/injection, schedule: Q01DX009 (ip), vehicle: water): 116 % of control
T/C (dose: 25.0 mg/kg/injection, schedule: Q01DX009 (sc), vehicle: water): 91 % of control
T/C (dose: 50.0 mg/kg/injection, schedule: Q01DX009 (sc), vehicle: water): 113 % of control
T/C (dose: 100.0 mg/kg/injection, schedule: Q01DX009 (sc), vehicle: water): 89 % of control
T/C (dose: 200.0 mg/kg/injection, schedule: Q01DX009 (sc), vehicle: water): 98 % of control

O=C(NC(Cc1ccccc1)C(=O)O)c1ccccc1 (configuration not stated)
T/C [1]: 112 % of control
T/C [2]: 112 % of control and 90 % of control
T/C [3]: 96 % of control and 100 % of control

O=C(CNC(=O)C(CSCc1ccccc1)NC(=O)OCc1ccccc1)NCC(=O)OCc1ccccc1 (stereo not drawn) (Cbz-[ξC](Bn)-Gly-Gly-OBn)
T/C [4]: 92 % of control
T/C [5]: 88 % of control

NC(CCCNc1ccc(O)cc1)C(=O)O (configuration not stated)
T/C (dose: 75.0 mg/kg/injection, schedule: Q01DX009 (ip), vehicle: saline): 122 % of control
T/C (dose: 100.0 mg/kg/injection, schedule: Q01DX009 (ip), vehicle: saline): 98 % of control
T/C (dose: 150.0 mg/kg/injection, schedule: Q01DX009 (ip), vehicle: saline): 106 % of control

O=C1c2ccccc2C(=O)c2c(NCCNCCO)ccc(O)c21
T/C (dose: 2.5 mg/kg/injection, schedule: Q01DX009 (ip), vehicle: suspension in saline): 118 % of control
T/C (dose: 20.0 mg/kg/injection, schedule: Q01DX009 (ip), vehicle: suspension in saline): 153 % of control
T/C (dose: 40.0 mg/kg/injection, schedule: Q01DX009 (ip), vehicle: suspension in saline): 184 % of control
T/C (dose: 80.0 mg/kg/injection, schedule: Q01DX009 (ip), vehicle: suspension in saline): 190 % of control

Cc1ccc(C2NC(=S)N3C(c4ccc(C)cc4)NC(=S)N23)cc1 (configuration not stated)
T/C [5]: 119 % of control
T/C [6]: 114 % of control
T/C [7]: 118 % of control
T/C [8]: 109 % of control and 88 % of control
T/C [9]: 114 % of control and 105 % of control
T/C (dose: 800.0 mg/kg/injection, schedule: Q01DX009 (ip), vehicle: Klucel (hydroxypropylcellulose) (HPC)): 101 % of control

C=C1N(C)c2ccccc2C1(C)C
T/C [10]: 110 % of control
T/C [11]: 108 % of control

COC1=C(OC)C(=O)C(C/C=C(\C)CC/C=C(\C)CC/C=C(\C)CC/C=C(\C)CC/C=C(\C)CC/C=C(\C)CC/C=C(\C)CC/C=C(\C)CC/C=C(\C)CCC=C(C)C)=C(C)C1=O
T/C [10]: 91 % of control
T/C [11]: 97 % of control and 101 % of control
T/C [1]: 93 % of control and 96 % of control
T/C [2]: 97 % of control
T/C [3]: 94 % of control and 98 % of control
T/C (dose: 200.0 mg/kg/injection, schedule: Q01DX009 (ip), vehicle: saline with Tween-80): 87 % of control and 90 % of control

COC1/C=C\C=C(/C)C(=O)NC2=CC(=O)C(NCCCl)=C(CC(C)CC(OC)C(O)C(C)/C=C(/C)C1OC(N)=O)C2=O (configuration not stated)
T/C (dose: 3.0 mg/kg/injection, schedule: Q01DX009 (ip), vehicle: DMSO): 109 % of control and 103 % of control
T/C (dose: 6.0 mg/kg/injection, schedule: Q01DX009 (ip), vehicle: DMSO): 112 % of control and 106 % of control
T/C (dose: 12.0 mg/kg/injection, schedule: Q01DX009 (ip), vehicle: DMSO): 112 % of control and 123 % of control
T/C (dose: 24.0 mg/kg/injection, schedule: Q01DX009 (ip), vehicle: DMSO): 109 % of control and 120 % of control

CCCCCC(=O)O[C@]1(C(C)=O)CC[C@H]2[C@@H]3CCC4=CC(=O)CC[C@]4(C)[C@H]3CC[C@@]21C
T/C [4]: 97 % of control and 101 % of control
T/C [5]: 100 % of control and 104 % of control
T/C [6]: 96 % of control and 98 % of control
T/C [7]: 99 % of control and 100 % of control
T/C [8]: 97 % of control and 100 % of control
T/C [9]: 91 % of control and 97 % of control

CCCCC(NC(=O)OC(C)(C)C)C(=O)O (configuration not stated)
T/C [7]: 97 % of control
T/C [8]: 111 % of control
T/C [9]: 90 % of control

COc1ccc2c(c1OC(C)=O)-c1cc(OC(C)=O)cc3c1C(C2)N(C(=O)CN(CCCl)CCCl)CC3 (configuration not stated)
T/C (dose: 1.56 mg/kg/injection, schedule: Q04DX003 (ip), vehicle: DMSO): 120 % of control
T/C (dose: 3.13 mg/kg/injection, schedule: Q04DX003 (ip), vehicle: DMSO): 120 % of control
T/C (dose: 6.25 mg/kg/injection, schedule: Q04DX003 (ip), vehicle: DMSO): 159 % of control
T/C (dose: 12.5 mg/kg/injection, schedule: Q04DX003 (ip), vehicle: DMSO): 150 % of control
T/C (dose: 25.0 mg/kg/injection, schedule: Q04DX003 (ip), vehicle: DMSO): 150 % of control
T/C (dose: 50.0 mg/kg/injection, schedule: Q04DX003 (ip), vehicle: DMSO): 170 % of control

CN1CCCN(C(c2ccccc2)c2ccc(Br)cc2)CC1 (configuration not stated)
T/C (dose: 18.0 mg/kg/injection, schedule: Q01DX009 (ip), vehicle: saline): 98 % of control
T/C (dose: 36.0 mg/kg/injection, schedule: Q01DX009 (ip), vehicle: saline): 92 % of control

CC(C)(O)/C=C/C(=O)[C@](C)(O)[C@H]1[C@H](O)C[C@@]2(C)[C@@H]3CC=C4[C@@H](C[C@H](O)C(=O)C4(C)C)[C@]3(C)C(=O)C[C@]12C
T/C (dose: 0.5 mg/kg/injection, schedule: Q01DX009 (ip), vehicle: saline + Tween-80 + alcohol): 102 % of control
T/C (dose: 1.0 mg/kg/injection, schedule: Q01DX009 (ip), vehicle: saline + Tween-80 + alcohol): 98 % of control

NCCCN=c1ccc2c3c1c(O)c1c(O)ccc(=O)c1c3[nH]n2CCNCCO
T/C (dose: 2.0 mg/kg/injection, schedule: Q01DX009 (ip), vehicle: water): 188 % of control
T/C (dose: 4.0 mg/kg/injection, schedule: Q01DX009 (ip), vehicle: water): 263 % of control
T/C [12]: 165 % of control

[Cl][Pt+2][Cl].[NH-]c1ccc(Cl)cc1[NH-]
T/C (dose: 2.5 mg/kg/injection, schedule: Q01DX009 (ip), vehicle: saline with Tween-80): 116 % of control
T/C (dose: 20.0 mg/kg/injection, schedule: Q01DX009 (ip), vehicle: saline with Tween-80): 168 % of control

NC(=O)c1ncn(C2OC(CO)C(O)C2O)c1O (configuration not stated)
T/C [4]: 102 % of control and 106 % of control
T/C [5]: 102 % of control and 107 % of control
T/C [6]: 98 % of control and 107 % of control
T/C [7]: 96 % of control and 106 % of control
T/C [8]: 97 % of control and 102 % of control
T/C [9]: 90 % of control

O=C(O)c1cc(C(=O)O)c(C(=O)O)cc1C(=O)O.[NH2-].[NH2-].[NH2-].[NH2-].[Pt+2].[Pt+2]
T/C (dose: 0.12 mg/kg/injection, schedule: Q01DX009 (ip), vehicle: water): 110 % of control
T/C [13]: 104 % of control
T/C [14]: 109 % of control and 110 % of control
T/C [15]: 114 % of control and 118 % of control
T/C [12]: 154 % of control

O=C1CNC(=O)N1CN1CCOCC1
T/C [6]: 94 % of control
T/C [7]: 94 % of control
T/C [8]: 115 % of control
T/C [9]: 101 % of control

CC[C@](O)(C(=O)O)c1cc2n(c(=O)c1CO)Cc1cc3ccccc3nc1-2
T/C (dose: 0.75 mg/kg/injection, schedule: Q01DX009 (ip), vehicle: water): 117 % of control
T/C (dose: 1.5 mg/kg/injection, schedule: Q01DX009 (ip), vehicle: water): 154 % of control
T/C (dose: 3.0 mg/kg/injection, schedule: Q01DX009 (ip), vehicle: water): 169 % of control

CC(C)(O)/C=C/C(=O)[C@](C)(O)[C@H]1[C@H](O)C[C@@]2(C)[C@@H]3CC=C4[C@@H](C=C(O)C(=O)C4(C)C)[C@]3(C)C(=O)C[C@]12C
T/C [13]: 99 % of control
T/C [14]: 89 % of control
T/C [15]: 89 % of control

C=C(OC1C(C)=C2C(C1OC(=O)CCCCCCC)C(C)(OC(C)=O)CC(OC(=O)CCC)C1(O)C2OC(=O)C1(C)O)/C(C)=C/C (configuration not stated)
T/C (dose: 0.09 mg/kg/injection, schedule: Q01DX009 (ip), vehicle: Klucel (hydroxypropylcellulose) (HPC)): 99 % of control
T/C (dose: 0.18 mg/kg/injection, schedule: Q01DX009 (ip), vehicle: Klucel (hydroxypropylcellulose) (HPC)): 114 % of control
T/C (dose: 0.37 mg/kg/injection, schedule: Q01DX009 (ip), vehicle: Klucel (hydroxypropylcellulose) (HPC)): 102 % of control
T/C (dose: 0.75 mg/kg/injection, schedule: Q01DX009 (ip), vehicle: Klucel (hydroxypropylcellulose) (HPC)): 114 % of control

— PubChem BioAssay AID200 (DTP/NCI, 2004)
